Experimental data reported in publication PMC9476787 (Chinese Herbal Medicines, 2020).

Key:
[1] = target: yeast α-glucosidase; assay: α-glucosidase inhibition assay; assay type: biochemical; details: read-out: IC50 α-Glucosidase; Table 2; mean ± SD, n = 3
[2] = target: T1, PTP1B (human, recombinant) (Homo sapiens, UniProt P18031); assay: PTP1B inhibition assay; assay type: biochemical
T1 sequence (P18031 1-435): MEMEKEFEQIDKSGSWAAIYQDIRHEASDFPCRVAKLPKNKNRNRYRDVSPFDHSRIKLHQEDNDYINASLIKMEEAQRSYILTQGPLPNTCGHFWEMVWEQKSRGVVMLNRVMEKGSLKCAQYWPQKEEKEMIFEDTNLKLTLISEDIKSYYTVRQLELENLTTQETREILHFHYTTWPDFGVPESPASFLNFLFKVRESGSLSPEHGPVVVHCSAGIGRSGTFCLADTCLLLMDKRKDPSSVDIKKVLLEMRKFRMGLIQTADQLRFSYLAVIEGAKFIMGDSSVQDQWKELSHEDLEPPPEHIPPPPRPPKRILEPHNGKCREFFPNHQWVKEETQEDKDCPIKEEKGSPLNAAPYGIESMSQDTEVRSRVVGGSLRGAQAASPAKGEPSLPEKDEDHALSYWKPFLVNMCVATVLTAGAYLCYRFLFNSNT

IC50 [1] [µM] | IC50 [2] [µM] | Structure (SMILES)
69.41 ± 0.03 | > 100 | CC[C@H](CC[C@@H](C)[C@H]1CC[C@H]2[C@@H]3CC=C4C[C@@H](O)CC[C@]4(C)[C@H]3CC[C@]12C)C(C)C [Compound 6, β-Sitosterol]
41.04 ± 0.34 |  | CC1(C)CC[C@]2(C(=O)O)CC[C@]3(C)C(=CC[C@@H]4[C@@]5(C)CC[C@H](O)C(C)(C)[C@@H]5CC[C@]43C)[C@@H]2C1 [Compound 7, Oleanolic acid]
